IC50 and Activity data for 14 compounds are collected here from ChEMBL document CHEMBL1926545, “The 2,11-cyclized cembranoids: cladiellins, asbestinins, and briarellins (period 1998-2010)” (J Nat Prod, 2011).

One experiment concerns MDA-MB-231. In words: Cytotoxicity against human MDA-MB-231 cells. It counts as functional, cell-based.
Another experiment relates to HepG2. In words: Cytotoxicity against human HepG2 cells. The experiment is classed as functional, cell-based.
For another experiment, the system named is MCF7. The experiment can be described thus: Cytotoxicity against human MCF7 cells. The experiment is classed as functional, cell-based.
In the next experiment the test system is A549. In words: Cytotoxicity against human A549 cells. It counts as functional, cell-based.
The next experiment concerns Ca9-22. In words: Cytotoxicity against human Ca9-22 cells. The experiment is classed as functional, cell-based.
The nature of experiment [1]: Cytotoxicity against human Hep3B cells. The experiment is classed as functional, cell-based, Hep 3B2.
The test system of experiment [2] is RAW264.7. In words: Antiinflammatory activity in […] RAW264.7 cells assessed as LPS-induced COX-2 expression at 10 uM. It counts as functional.
Experiment [3] has as its system RAW264.7. The experiment can be described thus: Antiinflammatory activity in […] RAW264.7 cells assessed as LPS-induced iNOS expression at 10 uM. The experiment is classed as functional.
Experiment [4] is described as follows: Cytostatic activity against human NSCLC-N6 cells. The experiment is classed as functional, cell-based.
A further experiment relates to L1210. The experiment can be described thus: Cytotoxicity against mouse L1210 cells. The experiment is classed as functional, cell-based.
[5] abbreviates: Homo sapiens, MDA-MB-231, read-out: IC50.
Where [6] appears, read: Homo sapiens, HepG2, read-out: IC50.
Setting [7] is: Homo sapiens, MCF7, read-out: IC50.
The mark [8] stands for this setting: Homo sapiens, A549, read-out: IC50.
The mark [9] stands for this setting: Homo sapiens, Ca9-22, read-out: IC50.
[10] abbreviates: Homo sapiens, Hep3B, read-out: IC50.

The structures appear in SMILES notation. Calls of active or inactive are those of the source. The calls are words filed in the database; no cut-off is given here.

What is called IC50 is the concentration at which inhibition is half-maximal. In the case of `CCCC(=O)O[C@]1(C)CC[C@H](O)[C@@H](C)C[C@H]2O[C@@H]1[C@@H]1[C@@H](C(C)C)[C@H](O)C[C@@](C)(OC(C)=O)[C@@H]12` [KLYSIMPLEXIN A], the IC50 result (in the experiment with MDA-MB-231 (mda-mb-231); in the experiment on HepG2 (hepg2); in the experiment with MCF7 (mcf7); in the experiment on A549 (a549); with Ca9-22 (ca9-22); in experiment [1] (hep 3b2)) was “Not Active” each time.
`C=C1C[C@H]2O[C@H]([C@@H]3[C@@H](C(C)C)[C@H](O)C[C@@](C)(OC(C)=O)[C@@H]32)[C@](C)(OC(=O)CCC)CCC1=O` [KLYSIMPLEXIN B]: the IC50 in the experiment with MDA-MB-231 (setting [5]) came to 15 µM; in the experiment on HepG2 (setting [6]), 6.4 µM; in the experiment with MCF7 (setting [7]) it was 6.5 µM; in the experiment with A549 (setting [8]) it was 4.3 µM; with Ca9-22 (setting [9]), 3.9 µM; in experiment [1] (setting [10]), 7.8 µM.
Take `C=C1C[C@H]2O[C@H]([C@@H]3[C@@H](C(C)C)[C@H](O)C[C@@](C)(OC(C)=O)[C@@H]32)[C@](C)(OC(=O)CCC)CC[C@@H]1O` [KLYSIMPLEXIN C]: the IC50 result (with MDA-MB-231 (mda-mb-231); in the experiment on HepG2 (hepg2); in the experiment with MCF7 (mcf7); in the experiment on A549 (a549); in the experiment on Ca9-22 (ca9-22); in experiment [1] (hep 3b2)) was “Not Active” each time.
As for `C=C1C[C@H]2O[C@H]([C@@H]3[C@@H](C(C)C)[C@H](O)C[C@@](C)(OC(C)=O)[C@@H]32)[C@](C)(OC(=O)CCC)CC[C@@H]1OO` [KLYSIMPLEXIN D], the IC50 entry (in the experiment on MDA-MB-231 (mda-mb-231); with HepG2 (hepg2); in the experiment on MCF7 (mcf7); in the experiment with A549 (a549); in the experiment on Ca9-22 (ca9-22); in [1] (hep 3b2)) was “Not Active” in each case.
Regarding `C=C1C[C@H]2O[C@H]([C@@H]3[C@@H](C(C)C)[C@H](O)C[C@@](C)(OC(C)=O)[C@@H]32)[C@](C)(OC(C)=O)CC[C@@H]1O` [KLYSIMPLEXIN E], the IC50 entry (with MDA-MB-231 (mda-mb-231); with HepG2 (hepg2); in the experiment with MCF7 (mcf7); with A549 (a549); in the experiment with Ca9-22 (ca9-22); in experiment [1] (hep 3b2)) was “Not Active” each time.
Regarding `CCCC(=O)O[C@]1(C)CC[C@H](O)[C@@](C)(O)C[C@H]2O[C@@H]1[C@@H]1[C@@H](C(C)C)[C@H](O)C[C@@](C)(OC(C)=O)[C@@H]12` [KLYSIMPLEXIN F], the IC50 entry (in the experiment with MDA-MB-231 (mda-mb-231); with HepG2 (hepg2); in the experiment on MCF7 (mcf7); with A549 (a549); with Ca9-22 (ca9-22); in experiment [1] (hep 3b2)) was “Not Active” each time.
For `CC(=O)O[C@]1(C)CC[C@H](C(C)C)[C@@H]2[C@H]1[C@H]1C[C@](C)(O)[C@@H](O)CC[C@@](C)(OC(C)=O)[C@@H]2O1` [KLYSIMPLEXIN G], the IC50 entry (in the experiment on MDA-MB-231 (mda-mb-231); in the experiment with HepG2 (hepg2); in the experiment on MCF7 (mcf7); in the experiment with A549 (a549); with Ca9-22 (ca9-22); in experiment [1] (hep 3b2)) was “Not Active” in each case.
On to `CCCC(=O)O[C@H]1[C@H](C(C)C)[C@@H]2[C@@H]([C@H]3/C=C(/C)[C@@H](O)CC[C@@](C)(OC(=O)CCC)[C@@H]2O3)[C@](C)(O)[C@@H]1OC(C)=O` [KLYSIMPLEXIN H], for which the IC50 in the experiment with MDA-MB-231 (setting [5]) turned out to be 8 µM; in the experiment with HepG2 (setting [6]), 10 µM; in the experiment with MCF7 (setting [7]) it was 10 µM; with A549 (setting [8]), 5.1 µM; in the experiment with Ca9-22 (setting [9]), 11 µM; in experiment [1] (setting [10]) it was 13 µM.
Take `CCCC(=O)O[C@]1(C)CCC[C@@](C)([S+](C)[O-])C[C@H]2O[C@@H]1[C@H]1[C@@H]2[C@](C)(OC(C)=O)CC[C@@H]1C(C)C` (stereo partly drawn) [KLYSIMPLEXIN SULFOXIDE A]: in the experiment with RAW264.7 [2], the outcome was inactive. In the experiment with RAW264.7 [3], the Activity stood at 8.8%.
As for `CCCC(=O)O[C@H]1[C@H](C(C)C)[C@@H]2[C@@H]([C@H]3C[C@](C)([S+](C)[O-])CCC[C@@](C)(OC(=O)CCC)[C@@H]2O3)[C@](C)(O)[C@@H]1OC(C)=O` (stereo partly drawn) [KLYSIMPLEXIN SULFOXIDE B], the result in the experiment on RAW264.7 [2] was inactive. Moreover, the Activity in the experiment with RAW264.7 [3] was determined as 18%.
As for `C=C1C[C@H]2O[C@H]([C@@H]3[C@@H](C(C)C)[C@H](OC(=O)CC[S+](C)[O-])[C@@H](OC(C)=O)[C@@](C)(O)[C@@H]32)[C@](C)(OC(=O)CCC)CC[C@@H]1O` (stereo partly drawn) [KLYSIMPLEXIN SULFOXIDE C], the results for the Activity in the experiment with RAW264.7 [2] and with RAW264.7 [3] were 7.2% and 11%, respectively.
Compound `C=C1C[C@@H]2O[C@@H]([C@@H]3[C@H]2[C@@](C)(OC(C)=O)[C@H](OC(C)=O)C[C@H]3C(C)C)[C@@](C)(OC(C)=O)CC[C@H]1O` [LABIATIN C] displayed an IC50 in [4] of 16 µM.
The same measure, in the same setting: then `C=C1C[C@H]2O[C@H]([C@H]3[C@@H]2[C@](C)(OC(C)=O)[C@@H](OC(C)=O)C[C@@H]3C(C)C)[C@](C)(OC(C)=O)CC[C@@H]1O` [LABIATIN E], with 73 µM.
For `C=C1CC[C@H](C(C)C)[C@@H]2[C@H]1[C@H]1C[C@](C)(O)[C@@H](O)CC[C@@](C)(O)[C@@H]2O1` [SCLEROPHYTIN A], the concentration for half-maximal inhibition (IC50) in the experiment with A549 (setting [8]) worked out at 57 µM; with L1210, 0.003 µM.
